{
  "source": "patent US20230109010A1",
  "about": "“PESTICIDE COMPOSITIONS WITH SUPRAMOLECULAR STRUCTURES FOR AGRICULTURAL USE” (BPS JUST ENERGY TECHNOLOGY, LLC, priority 2020, published 2023)",
  "assay_in_all_cases": "Field trial in corn at V3, broadcast treatment on 2-4 inch weeds, % weed control",
  "key": {"palmer amaranth": {"test_system": "palmer amaranth", "type": "in vivo, Amaranthus palmeri", "source_text": "(§1) The herbicides tested were glufosinate, glyphosate, and mesotrione. Each herbicide was combined at the specified rate with either deionized water or SymMAX™ supramolecular host water mixture commercially available from Shotwell Hydrogenics at 15 gallons per acre (GPA). Specified rates for glufosinate were 22 ounces per acre, 11 ounces per acre, and 5.5 ounces per acre. Specified rates for glyphosate were 22 ounces per acre, 11 ounces per acre, and 5.5 ounces per acre. Specified rates for mesotrione were 3 ounces per acre, 2 ounces per acre, and 1 ounce per acre.\n(§2) This example was conducted as a 4 replicate, RCBD (randomized control block design) in Quitman, GA. An untreated control was used as a standard that provided no weed control and no phytotoxicity. All treatments were compared to the untreated control. Counted dead weeds and living weeds were used to determine % weed control. The untreated control was also used to determine % crop phytotoxicity for the crop. Typical indications of phytotoxicity include chlorosis, stunting, epinasty, and/or leaf burn.\n(§3) The trial ran for 14 days with weekly data assessments taken on % crop phytotoxicity and % weed control of four key species: palmer amaranth (Amaranthus palmeri), ivyleaf morning glory (Ipomoea hederacea), fall panicum (Panicum dichotomiflorum) and large crabgrass (Digitaria sanguinalis The test field was over seeded with weed seed obtained from the University of Georgia prior to corn planting. Treatments were applied as a broadcast treatment when corn had reached physiological growth stage V3 and weeds were in the 2-4″ size range. Treatments were applied at various rates ranging from about 1 ounce per acre to about 22 ounces per acre. Tables 9-10 show the % weed control when the weeds are treated with glufosinate. Tables 11-12 show the % weed control when the weeds are treated with glyphosphate. Tables 13-14 show the % weed control when the weeds are treated with mesotrione."}, "ivyleaf morning glory": {"test_system": "ivyleaf morning glory", "type": "in vivo, Ipomoea hederacea", "source_text": "as §1, §2, §3"}, "large crabgrass": {"test_system": "large crabgrass", "type": "in vivo, Digitaria sanguinalis", "source_text": "as §1, §2, §3"}, "fall panicum": {"test_system": "fall panicum", "type": "in vivo, Panicum dichotomiflorum", "source_text": "as §1, §2, §3"}, "[1]": {"conditions": "7 days, glufosinate 5.5 ounces/acre"}, "[2]": {"conditions": "7 days, glufosinate 11 ounces/acre"}, "[3]": {"conditions": "7 days, glufosinate 22 ounces/acre"}, "[4]": {"conditions": "14 days, glufosinate 5.5 ounces/acre"}, "[5]": {"conditions": "14 days, glufosinate 11 ounces/acre"}, "[6]": {"conditions": "14 days, glufosinate 22 ounces/acre"}, "[7]": {"conditions": "7 days, mesotrione 1 ounce/acre"}, "[8]": {"conditions": "7 days, mesotrione 2 ounces/acre"}, "[9]": {"conditions": "7 days, mesotrione 3 ounces/acre"}, "[10]": {"conditions": "14 days, mesotrione 1 ounce/acre"}, "[11]": {"conditions": "14 days, mesotrione 2 ounces/acre"}, "[12]": {"conditions": "14 days, mesotrione 3 ounces/acre"}},
  "data": [
    {"compound": "CP(=O)(O)CCC(N)C(=O)O", "note": "(stereo not drawn) [Glufosinate, glufosinate]", "values": [
      {"measurement": "% WEED CONTROL FOR PALMER AMARANTH", "setting": "palmer amaranth; [1]", "value": 51.5, "unit": "%"},
      {"measurement": "% WEED CONTROL FOR PALMER AMARANTH", "setting": "palmer amaranth; [2]", "value": 77.9, "unit": "%"},
      {"measurement": "% WEED CONTROL FOR PALMER AMARANTH", "setting": "palmer amaranth; [3]", "value": 82.6, "unit": "%"},
      {"measurement": "% WEED CONTROL FOR PALMER AMARANTH", "setting": "palmer amaranth; [4]", "value": 29.0, "unit": "%"},
      {"measurement": "% WEED CONTROL FOR PALMER AMARANTH", "setting": "palmer amaranth; [5]", "value": 69.3, "unit": "%"},
      {"measurement": "% WEED CONTROL FOR PALMER AMARANTH", "setting": "palmer amaranth; [6]", "value": 76.1, "unit": "%"},
      {"measurement": "% WEED CONTROL FOR IVYLEAF MORNINGLORY", "setting": "ivyleaf morning glory; [1]", "value": 16.5, "unit": "%"},
      {"measurement": "% WEED CONTROL FOR IVYLEAF MORNINGLORY", "setting": "ivyleaf morning glory; [2]", "value": 52.3, "unit": "%"},
      {"measurement": "% WEED CONTROL FOR IVYLEAF MORNINGLORY", "setting": "ivyleaf morning glory; [3]", "value": 70.1, "unit": "%"},
      {"measurement": "% WEED CONTROL FOR IVYLEAF MORNINGLORY", "setting": "ivyleaf morning glory; [4]", "value": 5.1, "unit": "%"},
      {"measurement": "% WEED CONTROL FOR IVYLEAF MORNINGLORY", "setting": "ivyleaf morning glory; [5]", "value": 41.2, "unit": "%"},
      {"measurement": "% WEED CONTROL FOR IVYLEAF MORNINGLORY", "setting": "ivyleaf morning glory; [6]", "value": 64.0, "unit": "%"},
      {"measurement": "% WEED CONTROL FOR LARGE CRABGRASS", "setting": "large crabgrass; [1]", "value": 100.0, "unit": "%"},
      {"measurement": "% WEED CONTROL FOR LARGE CRABGRASS", "setting": "large crabgrass; [2]", "value": 100.0, "unit": "%"},
      {"measurement": "% WEED CONTROL FOR LARGE CRABGRASS", "setting": "large crabgrass; [3]", "value": 100.0, "unit": "%"},
      {"measurement": "% WEED CONTROL FOR LARGE CRABGRASS", "setting": "large crabgrass; [4]", "value": 91.8, "unit": "%"},
      {"measurement": "% WEED CONTROL FOR LARGE CRABGRASS", "setting": "large crabgrass; [5]", "value": 99.5, "unit": "%"},
      {"measurement": "% WEED CONTROL FOR LARGE CRABGRASS", "setting": "large crabgrass; [6]", "value": 100.0, "unit": "%"},
      {"measurement": "% WEED CONTROL FOR FALL PANICUM", "setting": "fall panicum; [1]", "value": 100.0, "unit": "%"},
      {"measurement": "% WEED CONTROL FOR FALL PANICUM", "setting": "fall panicum; [2]", "value": 99.5, "unit": "%"},
      {"measurement": "% WEED CONTROL FOR FALL PANICUM", "setting": "fall panicum; [3]", "value": 100.0, "unit": "%"},
      {"measurement": "% WEED CONTROL FOR FALL PANICUM", "setting": "fall panicum; [4]", "value": 83.3, "unit": "%"},
      {"measurement": "% WEED CONTROL FOR FALL PANICUM", "setting": "fall panicum; [5]", "value": 92.7, "unit": "%"},
      {"measurement": "% WEED CONTROL FOR FALL PANICUM", "setting": "fall panicum; [6]", "value": 95.5, "unit": "%"}
    ]},
    {"compound": "CS(=O)(=O)c1ccc(C(=O)C2C(=O)CCCC2=O)c([N+](=O)[O-])c1", "note": "[Mesotrione, mesotrione]", "values": [
      {"measurement": "% WEED CONTROL FOR PALMER AMARANTH", "setting": "palmer amaranth; [7]", "value": 87.4, "unit": "%"},
      {"measurement": "% WEED CONTROL FOR PALMER AMARANTH", "setting": "palmer amaranth; [8]", "value": 97.7, "unit": "%"},
      {"measurement": "% WEED CONTROL FOR PALMER AMARANTH", "setting": "palmer amaranth; [9]", "value": 99.0, "unit": "%"},
      {"measurement": "% WEED CONTROL FOR PALMER AMARANTH", "setting": "palmer amaranth; [10]", "value": 95.1, "unit": "%"},
      {"measurement": "% WEED CONTROL FOR PALMER AMARANTH", "setting": "palmer amaranth; [11]", "value": 97.0, "unit": "%"},
      {"measurement": "% WEED CONTROL FOR PALMER AMARANTH", "setting": "palmer amaranth; [12]", "value": 99.3, "unit": "%"},
      {"measurement": "% WEED CONTROL FOR IVYLEAF MORNINGLORY", "setting": "ivyleaf morning glory; [7]", "value": 64.5, "unit": "%"},
      {"measurement": "% WEED CONTROL FOR IVYLEAF MORNINGLORY", "setting": "ivyleaf morning glory; [8]", "value": 91.6, "unit": "%"},
      {"measurement": "% WEED CONTROL FOR IVYLEAF MORNINGLORY", "setting": "ivyleaf morning glory; [9]", "value": 94.2, "unit": "%"},
      {"measurement": "% WEED CONTROL FOR IVYLEAF MORNINGLORY", "setting": "ivyleaf morning glory; [10]", "value": 88.8, "unit": "%"},
      {"measurement": "% WEED CONTROL FOR IVYLEAF MORNINGLORY", "setting": "ivyleaf morning glory; [11]", "value": 96.5, "unit": "%"},
      {"measurement": "% WEED CONTROL FOR IVYLEAF MORNINGLORY", "setting": "ivyleaf morning glory; [12]", "value": 99.1, "unit": "%"},
      {"measurement": "% WEED CONTROL FOR LARGE CRABGRASS", "setting": "large crabgrass; [7]", "value": 62.3, "unit": "%"},
      {"measurement": "% WEED CONTROL FOR LARGE CRABGRASS", "setting": "large crabgrass; [8]", "value": 81.5, "unit": "%"},
      {"measurement": "% WEED CONTROL FOR LARGE CRABGRASS", "setting": "large crabgrass; [9]", "value": 91.5, "unit": "%"},
      {"measurement": "% WEED CONTROL FOR LARGE CRABGRASS", "setting": "large crabgrass; [10]", "value": 63.0, "unit": "%"},
      {"measurement": "% WEED CONTROL FOR LARGE CRABGRASS", "setting": "large crabgrass; [11]", "value": 78.8, "unit": "%"},
      {"measurement": "% WEED CONTROL FOR LARGE CRABGRASS", "setting": "large crabgrass; [12]", "value": 88.5, "unit": "%"},
      {"measurement": "% WEED CONTROL FOR FALL PANICUM", "setting": "fall panicum; [7]", "value": 62.8, "unit": "%"},
      {"measurement": "% WEED CONTROL FOR FALL PANICUM", "setting": "fall panicum; [8]", "value": 72.3, "unit": "%"},
      {"measurement": "% WEED CONTROL FOR FALL PANICUM", "setting": "fall panicum; [9]", "value": 87.3, "unit": "%"},
      {"measurement": "% WEED CONTROL FOR FALL PANICUM", "setting": "fall panicum; [10]", "value": 54.8, "unit": "%"},
      {"measurement": "% WEED CONTROL FOR FALL PANICUM", "setting": "fall panicum; [11]", "value": 62.3, "unit": "%"},
      {"measurement": "% WEED CONTROL FOR FALL PANICUM", "setting": "fall panicum; [12]", "value": 86.0, "unit": "%"}
    ]}
  ]
}
